Results on 15 compounds are retold here after patent US20040072992A1, “Novel peptide capable of specifically acting on biological membrane” (priority 2002, published 2004).

Converted amounts (≈) assume the structure as drawn. Read-outs that look alike come from different tables or passages of the source. Where a SMILES comes first, the peptide text is derived from it. Where no end group is shown, it is not given here.

Data set [1] has as its system S. enteritidis ATC14028. Conditions: ATC14028, 18 h.
For data set [2], the system named is E. coli CR-3. The settings on record: CR-3, 18 h.
Data set [3] has as its system E. coli JCM1649. Conditions: JCM1649, 18 h.
In data set [4] the test system is S. aureus JCM2413. Conditions: JCM2413, 18 h.
Data set [5] relates to S. enteritidis ATCC1891. The settings on record: ATCC1891, 18 h.
For data set [6], the system named is E. coli CE-273. Conditions: CE-273, 18 h.
Data set [7] has as its system B. sereus IFO3457. Conditions: 18 h.
The test system of data set [8] is B. subtilis IFO13722. The settings on record: IFO13722, 18 h.
For data set [9], the system named is S. aureus IFO13276. Conditions: IFO13276, 18 h.
Data set [10] concerns erythrocytes. The settings on record: for Hemolytic property (relative value): red cells of human.

Regarding `CC(C)C[C@H](NC(=O)[C@H](C)N)C(=O)N[C@@H](CCCNC(=N)N)C(=O)O` [ALR] (H-Ala-Leu-Arg-OH), the MIC in data set [1], in data set [2], in [3], in data set [4], in data set [5] and in [6] was over 200 µM throughout. Besides, the MIC in data set [7], in data set [8] and in [9] was over 200 µM throughout.
On to `CC(C)[C@H](NC(=O)[C@@H](N)CCCCN)C(=O)NCC(=O)O` [KVG] (H-Lys-Val-Gly-OH), for which the MIC in data set [1] was 800 µM (≈ 242 µg/mL); in data set [2] it was 800 µM (≈ 242 µg/mL); in data set [3], over 800 µM; in data set [4], 800 µM (≈ 242 µg/mL); in data set [5] it was over 800 µM; in [6] it was 800 µM (≈ 242 µg/mL). In addition, the MIC in [7], in data set [8] and in data set [9] was over 800 µM throughout.
Take `CC(C)C[C@H](NC(=O)[C@@H](NC(=O)[C@@H](N)CCCCN)C(C)C)C(=O)O` [KVL] (H-Lys-Val-Leu-OH): the MIC is 800 µM (≈ 287 µg/mL) in data set [1]; 800 µM (≈ 287 µg/mL) in [2]; over 800 µM in data set [3]; 400 µM (≈ 143 µg/mL) in data set [4]; over 800 µM in data set [5]; 800 µM (≈ 287 µg/mL) in data set [6]. Also, the MIC in [7], in [8] and in [9] was 800 µM (≈ 287 µg/mL) each time.
With `CC(C)[C@H](NC(=O)[C@@H](N)CCCNC(=N)N)C(=O)NCC(=O)O` [RVG] (H-Arg-Val-Gly-OH), the MIC in data set [1] was 800 µM (≈ 264 µg/mL); in [2] it was 800 µM (≈ 264 µg/mL); in data set [3], over 800 µM; in [4], 800 µM (≈ 264 µg/mL); in data set [5] it was over 800 µM; in [6], 800 µM (≈ 264 µg/mL). Also, the MIC in data set [7], in data set [8] and in data set [9] was over 800 µM in each case.
For the compound `CC(C)C[C@H](NC(=O)[C@@H](NC(=O)[C@@H](N)CCCNC(=N)N)C(C)C)C(=O)O` [RVL] (H-Arg-Val-Leu-OH), the MIC in [1] was 800 µM (≈ 309 µg/mL); in data set [2] it was 800 µM (≈ 309 µg/mL); in data set [3], over 800 µM; in data set [4] it was over 800 µM; in [5], over 800 µM; in [6] it was over 800 µM. The MIC in [7], in data set [8] and in [9] was over 800 µM in each case.
Turning to ALRALRALRALRALR [ALR5, ALRALRALRALRALR], the MIC in data set [3] was found to be 100 µM; in [4], 200 µM; in data set [5], 100 µM; in [6], 100 µM; in [7], 100 µM; in data set [8], 25 µM. The compound also registered an MIC in data set [9] of 400 µM.
For GWALR [Ribo-2, GWALR], the MIC in data set [1] is 800 µM; in [2] it was 800 µM; in [3], over 800 µM; in data set [4], 800 µM; in data set [5], 800 µM; in data set [6] it was over 800 µM. The MIC in [7], in data set [8] and in data set [9] was over 800 µM in each case.
Turning to “INWKGIAAMAKKLL [mastoparanX, INWKGIAAMAKKLL, reference compound]”, the MIC in [1] came to 6.3 µM; in data set [2], 3.1 µM; in data set [3], 3.1 µM; in data set [4] it was 12.5 µM; in [5], 3.1 µM; in data set [6] it was 3.1 µM. In addition, the MIC was found to be 3.1 µM in data set [7], 3.1 µM in [8] and 1.56 µM in data set [9]. For the same compound, the “Hemolytic property, in words” value in data set [10] is on record as “high level of hemolytic property”. Besides, the “Hemolytic property (relative value)” value came out at 5.4% in data set [10] (1 μM), 18.8% in data set [10] (5 μM), 86% in [10] (10 μM) and 93% in data set [10] (100 μM).
For the compound KNRKGIAGMAKKLLGNKWKLM [mastWR], the MIC came out at 25 µM in data set [1]; 25 µM in [2]; 50 µM in data set [3]; 50 µM in [4]; 12.5 µM in data set [5]; 12.5 µM in [6]. For the same compound, the MIC in data set [7], in data set [8] and in data set [9] was 50 µM throughout.
Turning to KNWKGIAGMAKKLLGKNWKLM-NH2 [mast21N], the MIC was determined as 6.3 µM in data set [1]; 3.1 µM in [2]; 3.1 µM in data set [3]; 12.5 µM in [4]; 6.3 µM in [5]; 3.1 µM in data set [6]. Besides, the MIC in data set [7] was 3.1 µM; in data set [8], 3.1 µM; in data set [9], 12.5 µM. The “Hemolytic property (relative value)” value in data set [10] (100 μM) was determined as 13%.
Regarding KVLALRL [KVL+, KVL ALRL], the MIC is over 200 µM in [1]; over 200 µM in [2]; over 200 µM in data set [3]; over 200 µM in data set [4]; over 200 µM in [5]; 3.1 µM in data set [6]. The MIC in data set [7], in [8] and in data set [9] was over 200 µM throughout.
“KVLINWKGIAAMAKKII [KVL-mastX, KVL INWKGIAAMAKKII]”: the MIC was over 200 µM in [1]; 50 µM in data set [2]; 100 µM in [3]; 50 µM in data set [4]; 100 µM in data set [5]; 25 µM in [6]. Also, the results for the MIC in data set [7], in data set [8] and in data set [9] were over 200 µM, 25 µM and over 200 µM, respectively.
Consider KVLKVLKVL [KVL3, KVLKVLKVL], for which the MIC in [1], in data set [2], in data set [3], in data set [4], in data set [5] and in data set [6] was over 200 µM each time. Besides, the MIC in data set [7], in data set [8] and in data set [9] was over 200 µM in each case.
As to RLAWG [Ribo-1, RLAWG], the MIC in [1] was 800 µM; in [2], 800 µM; in [3], over 800 µM; in [4], 800 µM; in data set [5] it was over 800 µM; in data set [6], over 800 µM. The MIC in data set [7], in data set [8] and in data set [9] was over 800 µM each time.
With “RVGINWKGIAAMAKKII [RVG-mastX, RVG INWKGIAAMAKKII]”, the MIC in [1] was 200 µM; in data set [2], 50 µM; in data set [3], over 200 µM; in data set [4], 200 µM; in data set [5] it was 100 µM; in [6], 50 µM. Further, the results for the MIC in [7], in [8] and in [9] were over 200 µM, 50 µM and over 200 µM, respectively.
